Patent US6496728B2, “Methods for extracting substances using alternating current” (University of Utah Research Foundation, priority 2000, dated 2002)

What was measured:
[1] = Constant current DC iontophoretic transport across human epidermal membrane in side-by-side diffusion cell
Protocol: Iontophoretic transport studies were carried out in a side-by-side two-chamber diffusion cell (diffusional surface area of around 0.8 cm^2 and chamber volume of 2 mL) with HEM at 37° C. The apparent permeability coefficients (P) in each experiment were calculated by: [formula]
where A is the membrane surface area, t is time, Q is the amount of permeant transported into the receiver chamber, and CD is the concentration of permeant in the donor chamber. The pH of the solutions in the donor and receiver chambers was checked after each iontophoresis run to detect possible water hydrolysis.
Constant current DC transport experiments were carried out at the current level of 0.13 mA/cm^2 using a constant current iontophoretic device (phoresor II Auto, Model No. PM 850, Iomed, Inc., Salt Lake City, Utah) with Ag—AgCl electrodes. […] HEM resistance during iontophoresis was measured by monitoring the electrical potential drop across the membrane using two flexible Luggin capillaries which were inserted into the donor and receiver compartments of the diffusion cells. Each of the Luggin capillaries contained a calomel electrode connected to a voltmeter. The HEM resistance could be determined during iontophoresis according the output current level and the voltmeter readings.
A trace amount of [^14C] […] One ml of sample was taken from the receiver chamber approximately every 30 minutes and replaced with the fresh PBS. A 10 μl sample was taken from the donor chamber every hour. Samples were mixed with 10 ml scintillation cocktail (Ultima Gold™, Packard Instrument Co., Meriden, Conn.) and assayed by a dual-labeled liquid scintillation counter (Parkard TriCarb™ Model 1900 TR Liquid Scintillation Analyzer).

[2] = AC + DC offset iontophoretic transport across human epidermal membrane in side-by-side diffusion cell; format: in vitro ADME
From the text: The output AC voltage was manually adjusted between 3 to 8 volts to keep the skin resistance at 2 kΩ (±10%) and the DC offset value was kept constant at 0.25 V during the entire period of the experiment. The same permeants and sampling protocol were used as described in the Constant Current Session.

[3] = AC without DC offset (AC + passive) transport across human epidermal membrane in side-by-side diffusion cell; format: in vitro ADME; conditions: target skin resistance 2 kΩ; for Papp: all data points from 100 to 330 min
From the text: The same protocol was used to reduce the skin electrical resistance to 2 kΩ as described in the AC+DC Offset method. […] Permeants and sampling protocol were the same as in the Constant Current and AC+DC Offset sessions as described above.

[4] = 0.13 mA/cm^2 DC, data points between 100 and 330 minutes
[5] = AC + DC, 50 Hz, DC offset 250 mV, target skin resistance 2 kΩ, data points between 100 and 330 minutes

SMILES	Slope of normalized mannitol flux versus time (linear regression) [1, 4]	Rate of change of mannitol flux, fold higher with constant current DC than with AC without DC Offset ([1]; constant current DC versus AC without DC Offset) [fold]	Rate of change of mannitol flux, fold higher with constant current DC than with AC+DC Offset ([1]; constant current DC versus AC+DC Offset) [fold]	Papp ([1]; human) [×10⁻⁶ cm/s]	Papp at 180 min ([1]; human) [×10⁻⁶ cm/s]	Slope of normalized mannitol flux versus time (linear regression) [2, 5]	Rate of change of mannitol flux, lower with AC+DC Offset method compared with AC without DC Offset method ([2]; AC+DC Offset versus AC without DC Offset) [%]	Papp ([2]; human, AC (50 Hz) with 0.25 V DC offset, target skin resistance 2 kΩ, all data points from 100 to 330 min, 36 points (6 skin samples), read-out: Mannitol permeability coefficient, mean) [×10⁻⁶ cm/s]	Papp at 180 min ([2]; human, AC (50 Hz) with 0.25 V DC offset, target skin resistance 2 kΩ, one time point (180 min), 6 samples, read-out: Mannitol permeability coefficient, mean) [×10⁻⁶ cm/s]	Slope of normalized mannitol flux versus time (linear regression) ([3]; AC 50 Hz, no DC offset, data points between 100 and 330 minutes)	Papp ([3]; human, AC (50 Hz) w/o DC offset, 28 points (4 skin samples), read-out: Mannitol permeability coefficient, mean) [×10⁻⁶ cm/s]	Papp at 180 min ([3]; human, AC (50 Hz) w/o DC offset, one time point (180 min), 4 samples, read-out: Mannitol permeability coefficient, mean) [×10⁻⁶ cm/s]	Slope of normalized TEA^+ flux versus time (linear regression) [1, 4]	Slope of normalized TEA^+ flux versus time (linear regression) [2, 5]	Papp ([3]; human, AC (50 Hz) w/o DC offset, 28 points (4 samples), read-out: TEA^+ permeability coefficient, mean) [×10⁻⁶ cm/s]
OC[C@@H](O)[C@@H](O)[C@H](O)[C@H](O)CO [Mannitol, mannitol]	4 × 10^−10 cm sec^−1 min^−1	5.7	10	0.16	0.15	4 × 10^−11 cm sec^−1 min^−1	57	0.16	0.17	7 × 10^−11 cm sec^−1 min^−1	0.0985	0.101			
CC[N+](CC)(CC)CC.[Br-] [TEA^+, tetraethylammonium bromide]													6 × 10^−9 cm sec^−1 min^−1	2 × 10^−9 cm sec^−1 min^−1	1.08
